US20140288040A1, “SUBSTITUTED BENZYLAMINE COMPOUNDS, THEIR USE IN MEDICINE, AND IN PARTICULAR THE TREATMENT OF HEPATITIS C VIRUS (HCV) INFECTION” (ASTEX THERAPEUTICS LIMITED, priority 2011, published 2014)
Where a name gives a salt, the structure may show the parent alone.

Target: T1, HCV NS3 protease (full length NS34a) (Hepatitis C virus genotype 1b, UniProt P26663)
T1 construct: The protease activity of the full length NS34a was measured using a FRET-based assay; made in house
Assay: HCV NS3 protease assay (FRET, full length NS34a)
Type: biochemical
Details: IC50 values of 10-150 μM against the protease activity of the full length NS34a, or at least 40% inhibition of protease activity at a concentration of 100 μM
Method: The HCV NS3 protease functions have been extensively studied and are considered as potential targets for antiviral therapy: see for example the many references listed in the introductory section of this application. Therefore, the activity of the compounds of the invention as anti-HCV agents was assessed using a full length HCV NS3 protease.
The protease activity of the full length NS34a was measured using a FRET-based assay utilizing a peptide substrate derived from the NS4AB cleavage site (Anaspec) and labelled at one end with a quencher (QXL520) and at the other with a fluorophore (5-FAMsp). NS34a (produced in-house by literature methods) was incubated with test compounds and peptide substrate in 50 mM Tris pH8, 20 mM DTT, 1% CHAPS, 10% glycerol and 5% DMSO. The reaction was followed by monitoring the change in fluorescence on a Molecular Devices Gemini plate reader for 30 minutes at room temperature. Initial rates were calculated from the progress curves using SoftMax Pro (Molecular Devices). IC50 values were then calculated from replicate curves using Prism GraphPad software.

T1 sequence (P26663 1658-1711): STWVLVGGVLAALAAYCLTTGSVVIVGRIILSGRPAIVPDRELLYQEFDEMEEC
T1 sequence (P26663 1027-1657): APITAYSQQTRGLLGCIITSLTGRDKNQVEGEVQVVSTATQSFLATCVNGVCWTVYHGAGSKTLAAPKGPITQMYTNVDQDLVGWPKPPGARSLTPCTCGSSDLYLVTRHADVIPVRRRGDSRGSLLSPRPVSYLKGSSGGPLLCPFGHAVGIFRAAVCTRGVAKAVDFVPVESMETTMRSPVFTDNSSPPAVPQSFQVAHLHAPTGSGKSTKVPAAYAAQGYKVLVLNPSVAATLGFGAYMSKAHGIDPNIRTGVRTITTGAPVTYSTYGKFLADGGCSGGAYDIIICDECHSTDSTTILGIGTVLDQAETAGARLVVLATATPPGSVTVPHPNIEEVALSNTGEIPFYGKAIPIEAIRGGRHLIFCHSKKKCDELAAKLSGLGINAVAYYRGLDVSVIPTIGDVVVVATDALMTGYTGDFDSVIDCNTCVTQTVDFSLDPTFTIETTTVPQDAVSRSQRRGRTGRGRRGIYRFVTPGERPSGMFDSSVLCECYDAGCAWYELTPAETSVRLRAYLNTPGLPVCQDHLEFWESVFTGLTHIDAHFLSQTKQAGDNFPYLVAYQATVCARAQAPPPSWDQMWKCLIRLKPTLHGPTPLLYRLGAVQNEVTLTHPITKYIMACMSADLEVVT

IC50 | SMILES
10 to 150 µM | CC[C@@H](N[C@H](C)CC(=O)NCC(N)=O)c1ccc(Cl)c(Oc2ccccc2)c1F [Example 177]
10 to 150 µM | CC[C@@H](N)c1ccc(Cl)c(Oc2ccc(NC(C)=O)nc2)c1F [Example 355]
10 to 150 µM | CC[C@@H](N[C@H](C)CC(N)=O)c1ccc(Cl)c(Oc2ccc(C#N)c(F)c2)c1F [Example 214]
10 to 150 µM | CC[C@@H](N[C@H](C)CC(=O)NC)c1ccc(Cl)c(Oc2ccccc2)c1F [Example 131B, (R)-3-[(R)-1-(4-Chloro-2-fluoro-3-phenoxy-phenyl)-propylamino]-N-methyl-butyramide. hydrochloride]
10 to 150 µM | CCc1ccc(C(N)CC2CCNCC2)c(F)c1Oc1ccccc1 (stereo not shown) [Example 105B, 1-(4-Ethyl-2-fluoro-3-phenoxy-phenyl)-2-piperidin-4-yl-ethylamine.dihydrochloride]
10 to 150 µM | CC[C@@H](N[C@H](C)CC(=O)NCC(=O)OC)c1ccc(Cl)c(Oc2ccccc2)c1F [Example 308]
10 to 150 µM | C[C@H](CC(N)=O)N[C@@H](CC1CCOCC1)c1ccc(Cl)c(Oc2ccccc2)c1F [Example 258]
10 to 150 µM | CC[C@@H](N[C@@H](C)CC(N)=O)c1ccc(Cl)c(Oc2ccc(F)cc2N)c1F [Example 334]
10 to 150 µM | CC[C@@H](N)c1ccc(Cl)c(Oc2ccc(CO)nc2)c1F [Example 231]
10 to 150 µM | C[C@H](CC(N)=O)NCc1ccc(F)c(Oc2ccccc2)c1F [Example 327]

SMILES | IC50
C=CCN[C@@H](CC)c1ccc(F)c(Oc2ccccc2)c1F [Example 102, Allyl-[(S)-1-(2,4-difluoro-3-phenoxy-phenyl)-propyl]-amine.hydrochloride] | 10 to 150 µM

Same assay, conditions: protease activity of full length NS34a, FRET peptide substrate; read-out: Activity IC50

IC50 | SMILES
0.63 µM | CC[C@H](N)c1ccc(Cl)c(Oc2cccc(C(=O)N(C)Cc3cnn(Cc4ccccc4)c3)c2)c1F [Example 138, 3-[3-((S)-1-Amino-propyl)-6-chloro-2-fluoro-phenoxy]-N-(1-benzyl-1H-pyrazol-4-ylmethyl)-N-methyl-benzamide.hydrochloride]
9.7 µM | CCc1ncc(CNC(CC)c2ccc(F)c(Oc3ccccc3)c2F)[nH]1 (stereo not shown) [Example 38]
2.7 µM | C[C@H](N)c1ccc(Cl)c(Oc2ccccc2)c1F [Example 342]
3.1 µM | CC[C@@H](N[C@H](C)CC(N)=O)c1ccc(Cl)c(Oc2ccc3c(c2)C(C)(C)CN3)c1F [Example 323]
1.9 µM | CS(=O)(=O)Nc1cccc(Oc2c(F)ccc(C(N)CC3CCNCC3)c2F)c1 (stereo not shown) [Example 108B, N-{3-[3-(1-Amino-2-piperidin-4-yl-ethyl)-2,6-difluoro-phenoxy]-phenyl}-methane-sulfonamide.dihydrochloride]
5.4 µM | CC[C@@H](N[C@H](C)CC(N)=O)c1ccc(Cl)c(Oc2ccc([N+](=O)[O-])cc2)c1F [Example 202]
1.7 µM | C#Cc1ccc(Oc2c(Cl)ccc([C@@H](CC)N[C@H](C)CC(N)=O)c2F)cc1 [Example 229]
6.9 µM | CCc1ccc(Oc2c(Cl)ccc([C@H](N)CC)c2F)cc1 [Example 187]
0.72 µM | CC[C@@H](N)c1ccc(Cl)c(Oc2ccc(/C=N/O)cc2)c1F [Example 204, 4-[3-((R)-1-Amino-propyl)-6-chloro-2-fluoro-phenoxy]-benzaldehyde oxime.hydrochloride]
0.11 µM | CC[C@@H](N[C@@H](C)CC(=O)NCCO)c1ccc(Cl)c(Oc2ccccc2)c1F [Example 147]
4.9 µM | CC[C@@H](N[C@H](C)CC(N)=O)c1ccc(Cl)c(Oc2ccc(C#N)c(OC)c2)c1F [Example 209]
6.4 µM | N[C@@H](c1ccc(Cl)c(Oc2ccccc2)c1F)C1CCOCC1 [Example 356]
0.7 µM | CC[C@H](N)c1ccc(Cl)c(Oc2cccc(C(=O)N3CCCC3)c2)c1F [Example 133, {3-[3-((S)-1-Amino-propyl)-6-chloro-2-fluoro-phenoxy]-phenyl}-pyrrolidin-1-yl-methanone.hydrochloride]
1.2 µM | CC[C@H](N)c1ccc(Cl)c(Oc2ccccc2)c1Cl [Example 261, (S)-1-(2,4-Dichloro-3-phenoxy-phenyl)-propylamine.hydrochloride]
